Data on eight molecules can be found in patent US20210085743A1, “SARRACENIA-BASED TOPICAL COMPOSITIONS AND METHODS OF USE THEREOF” (Aubio Life Sciences, LLC, priority 2019, published 2021).

The test system of one data set is herpes. As to conditions: guinea pig, topical, as infrequently as once weekly; cited from earlier work.
Data set [1] deals with Reconstructed human epithelium (RhE). Description: Cytokine release (ELISA) in SDS-damaged reconstructed human epithelium. Format: cell-based. The conditions noted are these: SDS vs untreated control group. How it is done: Reconstructed human epithelium (RhE) was damaged by exposure to SDS 0.15% for 1 h, then 25 μL of the final Sarracenia formulation (Gel B) was applied. Cell viability by the MTT assay (FIG. 1), and cytokine release, specifically, IL-1α, IL-6, IL-8 and G-CSF release measured using ELISA (FIG. 2), were evaluated 24 h later. Each treatment was run in triplicate. A statistically significant (Tukey's multiple comparison test) recovery in cell viability and cytokine release compared to SDS treated inserts was considered as indicator of repair capacity. FIG. 2 (legend): Evaluation of cytokine production. Each value represents the mean±SD, n=3. Statistical analysis was performed with Tukey's multiple comparison test with *p<0.05 vs Control and § vs SDS treated group.

Data set [2] shares this test system. Description: MTT cell viability in SDS-damaged reconstructed human epithelium. Format: cell-based. The conditions noted are these: SDS 0.15% for 1 h, MTT 24 h later. How it is done: Reconstructed human epithelium (RhE) was damaged by exposure to SDS 0.15% for 1 h, then 25 μL of the final Sarracenia formulation (Gel B) was applied. Cell viability by the MTT assay (FIG. 1), and cytokine release, specifically, IL-1α, IL-6, IL-8 and G-CSF release measured using ELISA (FIG. 2), were evaluated 24 h later. Each treatment was run in triplicate. A statistically significant (Tukey's multiple comparison test) recovery in cell viability and cytokine release compared to SDS treated inserts was considered as indicator of repair capacity.
Each value represents the mean±SD, n=3. **p<0.01 vs control. The dotted line is set at the level of cytotoxicity obtained following SDS damage.
FIG. 1 (legend): Sarracenia extract formulation improve cellular viability in a skin irritant model. The results obtained on cell viability (MTT assay) are reported. Each value represents the mean±SD, n=3. Statistical analysis was performed with Tukey's multiple comparison test with **p<0.01 vs Control. The dotted line is set at the level of cytotoxicity obtained following SDS damage.

Data set [3] deals with cancer cells including melanoma. As to conditions: various types of cancer cells including melanoma; cited from earlier work.
A further data set concerns mycobacteria. The conditions noted are these: from methanolic extracts of Sarracenia purpurea; cited from earlier work.
The next data set has as its system THP-1 cells. The data set is described as follows: TLR agonist-induced IL-8 and TNF-α release (ELISA) in THP-1 cells. Format: cell-based, human. The conditions noted are these: control wells, 24 h.

Experimental for THP-1 cells: Naïve THP-1 cells were exposed for 24 to the TLR3 agonist poly(I:C) (100 μg/ml), to the TLR7/8 agonist imidazoquinoline (1 μg/m1), to the TLR9 agonist Class A CpG oligonucleotide 5 μM, and to LPS from Escherichia coli serotype 0127:B8 10 ng/ml in the presence or absence of three not cytotoxic concentrations of the extract. IL-8 and TNF-α were measured by ELISA as reference cytokines. Three independent experiments will be conducted. A statistically significant difference versus control cells was considered relevant.
Naïve THP-1 cells were exposed for 24 to poly(I:C) 100 μg/ml, imidazoquinoline (Imid) 1 μg/ml, or LPS 10 ng/ml in the presence or absence of three concentrations of the extract 0.1, 0.5 and 1.0 mg/ml). IL-8 release was measured by ELISA.
Naïve THP-1 cells were exposed for 24 to poly(I:C) 100 μg/ml, imidazoquinoline (Imid) 1 μg/ml, or LPS 10 ng/ml in the presence or absence of three concentrations of the extract 0.1, 0.5 and 1.0 mg/ml). TNF-α release was measured by ELISA.

Regarding `CCOCc1nc2c(N)nc3ccccc3c2n1CC(C)(C)O` [Resiquimod, 4-amino-2-ethoxymethyl-α,α-dimethyl-1H-imidazo [4,5-c]quinoline-1-ethanol], the “recurrences of herpes after therapy” value in the data set with herpes is “reduces recurrences of herpes”.

For `CCCCCCCCCCCCOS(=O)(=O)[O-].[Na+]` [SDS], in data set [1], the IL-1α release result is given as “increase” and the IL-8 release result is “increase”. In data set [2], the “cell viability after SDS damage” value is on record as “below 50%”.

As for `C=C(C)[C@@H]1CC[C@]2(CO)CC[C@]3(C)[C@H](CC[C@@H]4[C@@]5(C)CC[C@H](O)C(C)(C)[C@@H]5CC[C@]43C)[C@@H]12` [betulin], the anti-tumor activity result in data set [3] is “anti-tumor activity”.

`C=C(C)[C@@H]1CC[C@]2(C=O)CC[C@]3(C)[C@H](CC[C@@H]4[C@@]5(C)CC[C@H](O)C(C)(C)[C@@H]5CC[C@]43C)[C@@H]12` [betulinaldehyde]: in the data set with mycobacteria, the antimycobacterial activity result is on record as “responsible for the antimycobacterial activity”.

Take `c1cnc2c(c1)ccc1nc[nH]c12` [imidazoquinoline]: in the data set with THP-1 cells, the “IL-8 release by TLR agonist alone” value is reported as “induced”.

On to `C=C(C)[C@@H]1CC[C@]2(C)CC[C@]3(C)[C@H](CC[C@@H]4[C@@]5(C)CC[C@H](O)C(C)(C)[C@@H]5CC[C@]43C)[C@@H]12` [lupeol], for which the anti-tumor activity entry in data set [3] is “anti-tumor activity”.

For the molecule `C[C@H]1[C@H](C)CC[C@]2(C(=O)O)CC[C@]3(C)C(=CC[C@@H]4[C@@]5(C)CC[C@H](O)C(C)(C)[C@@H]5CC[C@]43C)[C@H]12` [ursolic acid], in the data set with mycobacteria, the antimycobacterial activity entry was “responsible for the antimycobacterial activity”.

Consider Poly(I:C), for which the “IL-8 release by TLR agonist alone” value in the data set with THP-1 cells is “induced”.
